≈ marks a conversion by molar mass, not a printed value. A value given as a limit tells only on which side of the number the result lay.

For this data set the following is noted: buffer; pH 7.4; 200.0 µM.
For `O=S(=O)(NCc1ccccn1)c1ccc(Cl)c(C(F)(F)F)c1`, the solubility (kinetic) (in general, solubility judged after dilution from a stock solution rather than from solid) stood at 16.5 µg/mL (≈ 47 µM). To `Cc1ccc2cc(CCNC(=O)CCCc3ccccc3)c(=O)[nH]c2c1` belongs 2.2 µg/mL (≈ 6.31 µM). In turn, `Cc1occc1C(=O)N(C)Cc1nc(-c2ccccc2)no1` had a solubility (kinetic) of 40.9 µg/mL (≈ 138 µM).

Regarding `CCOC(=O)c1sc(Nc2ccc(F)cc2)nc1C`, the solubility (kinetic) is below 0.3 µg/mL. To `Cc1ccc(-n2nc3c(c2NC(=O)C(C)C)CS(=O)(=O)C3)c(C)c1` belongs above 52.1 µg/mL.

`CCC(Oc1ccccc1)C(=O)Nc1ccccc1N1CCCCC1` (configuration not stated) yielded a kinetic solubility of 0.7 µg/mL (≈ 2.07 µM). In the case of `O=C(Nc1cc(Cl)ccc1Cl)c1ccco1`, the kinetic solubility was determined as 7.6 µg/mL (≈ 29.7 µM). To `N#CC(c1nc2ccccc2nc1N1CCOCC1)S(=O)(=O)c1ccccc1` (configuration not stated) belongs above 59.2 µg/mL. To `CC1=C(C)CC(C(=O)NC(C)CCc2ccccc2)C(C(=O)O)C1` (configuration not stated) belongs above 49.4 µg/mL. To `COc1cccc(NC(=O)CN(C)C(C)C(=O)N2CCCC2)c1` (configuration not stated) belongs 44.4 µg/mL (≈ 139 µM). For the compound `O=C(O)CSc1ccc(S(=O)(=O)N2CCCC2)cn1`, the solubility (kinetic) is above 45.4 µg/mL. To `COc1ccc2ccccc2c1CNC(C)c1ccccc1.O=C(O)C(=O)O` (configuration not stated) belongs above 57.2 µg/mL. To `Cc1coc2cc3oc(=O)c(CCC(=O)NC4CC4)c(C)c3cc12` belongs 16.7 µg/mL (≈ 51.3 µM); to `O=C(COC(=O)c1ccccn1)c1ccc([N+](=O)[O-])cc1`, 39.9 µg/mL (≈ 139 µM). To `CC(C)c1cc(C(C)C)c(S(=O)(=O)N2CCNCC2)c(C(C)C)c1` belongs 39.3 µg/mL (≈ 111 µM); to `CCOC(=O)N1CCC(NC(=O)c2ccccc2C(=O)O)CC1`, above 48.1 µg/mL; to `COc1ccc(N2CC(C(=O)N3CCOCC3)CC2=O)cc1` (configuration not stated), above 45.7 µg/mL. The compound `CC1CCCN(CCC(=O)c2ccc(Br)cc2)C1.Cl` (configuration not stated) yielded a kinetic solubility of 33.8 µg/mL. With `COC(=O)c1cc(NC(=O)c2cccnc2)cc(C(=O)OC)c1`, the kinetic solubility is 5.6 µg/mL (≈ 17.8 µM). Against the preceding compound, the solubility kinetic is about 6-fold lower. To `CCC(=O)Nc1cccc(-c2nc3ccc(C)cc3o2)c1` belongs 1.6 µg/mL (≈ 5.71 µM); to `COc1ccc(CCC(=O)Nc2cnc3ccccc3c2)cc1`, 1 µg/mL (≈ 3.26 µM). To `O=C(COc1ccc(Cl)cc1)N1CCCCCCC1` belongs 31.8 µg/mL (≈ 113 µM); to `O=C(Nc1cccc(F)c1)c1ccco1`, 26.7 µg/mL (≈ 130 µM). To `Cc1ccc(S(=O)(=O)CCC(=O)Nc2ccccc2C)cc1` belongs 21.9 µg/mL (≈ 69 µM); to `COc1ccc(Cc2nnc(NCCO)[nH]c2=O)cc1`, above 41.4 µg/mL. On to `COc1ccccc1C1CCN(Cc2ccc(Cl)cc2Cl)CC1`, for which the solubility (kinetic) is below 0.8 µg/mL. To `Cc1ccc(S(=O)(=O)n2ccc3c2CCCC3=O)cc1` belongs above 43.4 µg/mL.

Consider `COc1cccc(NC(=S)N2c3ccccc3CC2C)c1` (configuration not stated), for which the solubility (kinetic) turned out to be 20.3 µg/mL (≈ 68 µM).

`CC(C)(C)S(=O)(=O)/C(C#N)=C/Nc1ccccn1` had a solubility (kinetic) above 39.8 µg/mL.

The compound `COc1ccc(CCC(=O)Nc2nc(C)c(C(=O)N(C)C)s2)cc1` registered a kinetic solubility of 41.3 µg/mL (≈ 119 µM). With `Cc1nc2c(Cl)cccc2c2c1CC(CBr)O2` (configuration not stated), the kinetic solubility is 12.5 µg/mL (≈ 40 µM). As for `Nc1nc2c(s1)COc1ccccc1-2`, the kinetic solubility is above 30.6 µg/mL. For the compound `Cc1ccc(OCC(O)CN2CCOCC2)cc1` (configuration not stated), the kinetic solubility is 33.4 µg/mL (≈ 133 µM). To `CNS(=O)(=O)c1cc(N)ccc1C` belongs 26.2 µg/mL (≈ 131 µM); to `CCNC(=S)Nc1ccc(Cc2nc3ccccc3[nH]2)cc1`, 36 µg/mL (≈ 116 µM); to `Cn1c(SCc2ccc(C#N)cc2)nnc1-c1ccncc1`, above 46.1 µg/mL. To `NC(=O)c1ccc(=O)n(Cc2ccc(F)c(F)c2)c1` belongs above 39.6 µg/mL; to `COc1ccc(OCC(=O)N(C)CC2COc3ccccc3O2)cc1` (configuration not stated), above 51.5 µg/mL. Compound `COc1ccc(N2C(=O)C3C(C2=O)C3(c2ccccc2)c2ccccc2)cc1` (configuration not stated) returned a solubility (kinetic) of 0.9 µg/mL (≈ 2.44 µM). `COc1cccc(/C=C2\SC(=N)N(c3ccc(F)cc3)C2=O)c1` gave a solubility (kinetic) of 0.5 µg/mL (≈ 1.52 µM). To `CC(NC(=O)/C=C/c1ccccc1[N+](=O)[O-])C1CC2CCC1C2` (configuration not stated) belongs 1.2 µg/mL (≈ 3.82 µM); to `O=C(NC(=S)Nc1ccc(Br)cn1)c1cccnc1`, 3 µg/mL (≈ 8.9 µM). On to `CC(C)(C)c1ccc(C(=O)NCCC(=O)N2CCCC2)cc1`, for which the solubility (kinetic) was above 45.4 µg/mL. `O=C(NS(=O)(=O)c1ccc(Cl)s1)c1ccccc1` showed a solubility (kinetic) above 45.3 µg/mL. In turn, `COc1ccc(CN(C)C(=O)c2ccc3c(=O)n4c(nc3c2)CCC4)cc1` displayed a solubility (kinetic) above 54.5 µg/mL.

For `N#Cc1ccc(C(=O)OCC(=O)N2CCOCC2)cc1`, the kinetic solubility is above 41.1 µg/mL. To `O=C(Nc1ccc(Nc2ccccc2)cc1)c1ccc(Cl)cc1` belongs 0.4 µg/mL (≈ 1.24 µM); to `COc1ccc(S(=O)(=O)N2CCCCCC2)cc1NC(=O)CN1C(=O)CNC1=O`, above 63.7 µg/mL. To `Cc1cc(C)n2nc(SCC(=O)N3CC(C)CC(C)C3)nc2n1` (configuration not stated) belongs above 50 µg/mL. To `c1ccc(C(NCCNC(c2ccccc2)c2ccccc2)c2ccccc2)cc1` belongs 1.7 µg/mL (≈ 4.33 µM).

`CS(=O)(=O)CC(=O)Nc1ccc2nc3n(c(=O)c2c1)CCCCC3` yielded a kinetic solubility of 43.2 µg/mL (≈ 124 µM). In the case of `Cc1noc(C)c1C(=O)OCC(=O)Nc1ccc(N2CCOCC2)cc1`, the solubility (kinetic) turned out to be 7.6 µg/mL (≈ 21.1 µM). Compound `Cc1ccc(C(=O)NCCCc2ccccc2)c(Cl)c1` returned a solubility (kinetic) of 31.9 µg/mL (≈ 111 µM). Compared with the last compound, the solubility kinetic is about 4.2-fold higher.

The compound `Cc1cc(C)c(S(=O)(=O)c2ccc(F)cc2C)c(Cl)n1` showed a solubility (kinetic) of 36.8 µg/mL (≈ 117 µM). To `CC(C)(C)C(=O)N1CCN(c2ncccc2C(F)(F)F)CC1` belongs above 47.3 µg/mL.

In the case of `C=CC[n+]1c(C)csc1Nc1cccc(Br)c1.[Br-]`, the solubility (kinetic) is 3.3 µg/mL. To `Cn1c(N)c(C(=O)COC(=O)c2ccc3ccccc3c2)c(=O)n(C)c1=O` belongs 3.8 µg/mL (≈ 10.3 µM); to `CC(Sc1nnc2n1CCCCC2)C(=O)Nc1ccccc1[N+](=O)[O-]` (configuration not stated), above 54.2 µg/mL.

Take `Cc1ccc(-c2csc(-c3cc(C)on3)n2)cc1`: the kinetic solubility is below 0.3 µg/mL.

As to `COc1ccc(C(=O)OCC(=O)Nc2sccc2C(N)=O)cc1OC`, the kinetic solubility worked out at 1 µg/mL (≈ 2.74 µM). To `O=C(NC1CC2CCCC(C1)N2C(=O)Nc1cccc(F)c1)C1CC1` (configuration not stated) belongs 16.3 µg/mL (≈ 47.2 µM); to `C/C(=N\NC(=O)c1cc(C)nc2ccccc12)c1ccccn1`, above 45.7 µg/mL. In turn, `S=c1[nH]nc(-c2ccco2)n1-c1ccc(Cl)cc1` showed a kinetic solubility above 41.7 µg/mL. To `COc1ccc(C(=O)CSc2nnc3ccccn23)cc1OC` belongs above 49.4 µg/mL; to `CCn1c(C)nc2cc(C(=O)OC)ccc21`, above 32.7 µg/mL.

The compound `Nc1nc2ccc(Cc3ccncc3)cc2s1` had a solubility (kinetic) above 36.2 µg/mL. To `Cc1c([N+](=O)[O-])c2ccc(O)cc2n1-c1ccccc1` belongs 1 µg/mL (≈ 3.73 µM); to `Cn1ccnc1C1CCCCN1Cc1nc(Cc2ccccc2F)no1` (configuration not stated), 49.9 µg/mL (≈ 140 µM). To `N#CCSc1nc2ccccc2c(=O)n1CCCC(=O)NCC1CCCO1` (configuration not stated) belongs 47.7 µg/mL (≈ 123 µM); to `O=C(NC(=S)Nc1ccc2oc(=O)ccc2c1)c1ccccc1F`, 1.4 µg/mL (≈ 4.09 µM); to `CCNC(=O)NNC(=O)C1CC(c2cccnc2)=NO1` (configuration not stated), above 41.6 µg/mL. To `CN(CC(=O)Nc1cccc(F)c1)CC(=O)Nc1ccccc1[N+](=O)[O-]` belongs 49.7 µg/mL (≈ 138 µM); to `Cc1ccccc1S(=O)(=O)Cc1ccc(C(=O)NC2CC2)o1`, above 47.9 µg/mL. Take `O=C(CNC(=O)c1ccco1)Nc1ccc(Cl)cc1`: the kinetic solubility came to 24.1 µg/mL (≈ 86.5 µM). To `Nc1nc(Nc2ccccc2F)nc(N2CCOCC2)c1[N+](=O)[O-]` belongs 8.2 µg/mL (≈ 24.5 µM); to `Cc1nc(C(=O)N2CCCC(Nc3ccc(C)c(C)c3)C2)cs1` (configuration not stated), above 49.4 µg/mL; to `CN1CCC(N(C)C(=O)c2ccc(Cl)c(S(=O)(=O)N3CCc4ccccc43)c2)CC1`, above 67.2 µg/mL. To `Cn1c(N)c(C(=O)COC(=O)c2cccc(S(=O)(=O)NCc3ccccc3)c2)c(=O)n(C)c1=O` belongs 17.6 µg/mL (≈ 36.2 µM). Turning to `O=C(Cc1ccc(Cl)cc1)OCC(=O)N1CCCCCC1`, the kinetic solubility is above 46.5 µg/mL.

Compound `Cc1nc(SCC(=O)NCC2CCCO2)[nH]c(=O)c1C` (configuration not stated) displayed a solubility (kinetic) above 44.6 µg/mL. To `Cc1cc(-c2cccs2)c(C#N)c(=S)[nH]1` belongs 28.3 µg/mL (≈ 122 µM); to `Cc1cccc(NC(=O)NCc2ccc3c(c2)OCO3)c1`, 1.6 µg/mL (≈ 5.63 µM). To `O=C(COC(=O)/C=C/c1ccc([N+](=O)[O-])cc1)NCc1cccs1` belongs 4.2 µg/mL (≈ 12.1 µM); to `COc1ccc(OC)c(S(=O)(=O)N2CCN3CCCC3C2)c1` (configuration not stated), above 49 µg/mL; to `CCCNC(=O)c1ccc(COc2ccc(Cl)cc2)o1`, 33 µg/mL (≈ 112 µM). To `O=C(Cc1ccccc1)Nc1ccc(NC(=O)c2ccccc2)c(Cl)c1` belongs 2.3 µg/mL (≈ 6.3 µM); to `CN(Cc1ccccc1)S(=O)(=O)c1ccc(Cl)c(C(=O)OCC(=O)NC2CCS(=O)(=O)C2)c1` (configuration not stated), 18 µg/mL (≈ 35 µM).

Compound `CC(C)CNc1nc(N)c([N+](=O)[O-])c(NCc2ccccc2)n1` registered a kinetic solubility below 0.1 µg/mL. To `CC(=O)c1c(-c2ccccc2)c2ccccc2[nH]c1=O` belongs 15.1 µg/mL (≈ 57.3 µM); to `Cc1ccccc1N1C(=O)C2CCCN2C1=S` (configuration not stated), above 36.9 µg/mL.

Consider `FC(F)(F)c1nc(=S)c2ccccc2[nH]1`, for which the kinetic solubility was 34.5 µg/mL (≈ 150 µM). To `COc1cc(/C=C/C(=O)O)cc(S(=O)(=O)Nc2cc(C(F)(F)F)ccc2N2CCOCC2)c1OC` belongs above 77.5 µg/mL; to `O=C(CC1CCCCC1)NCc1ccc(F)cc1`, 20.7 µg/mL (≈ 83 µM); to `O=C(CN1CCCC1)NN=C(c1ccccc1)c1ccccc1`, above 46.1 µg/mL. Take `CC(=O)Nc1ccc(SCC(=O)N(C)CC(=O)Nc2ccccc2Cl)cc1`: the kinetic solubility was above 60.9 µg/mL. As to `COc1ccc(Nc2cc(Nc3cccc(OC)c3)ncn2)cc1`, the solubility (kinetic) turned out to be 0.5 µg/mL (≈ 1.55 µM). To `CCCCCOc1ccccc1C(=O)NCCCCCC(=O)O` belongs above 48.2 µg/mL; to `COc1ccc(N/C=C2\CCc3ccccc3C2=O)cc1`, 2 µg/mL (≈ 7.16 µM). `COc1cccc(C(=O)NC(C)CCc2ccccc2)c1` (configuration not stated): the kinetic solubility was determined as 36 µg/mL (≈ 127 µM). Compared with the last compound, the solubility kinetic is about 18-fold higher.

As for `Cn1c(NC(=O)c2ccc(F)cc2)nc2ccccc21`, the kinetic solubility came out at 4.8 µg/mL (≈ 17.8 µM). `O=C(COc1ccc(F)cc1)NCCNC(=O)COc1ccc(F)cc1`: the solubility (kinetic) was determined as 11.2 µg/mL (≈ 30.7 µM). To `Cn1c(N)c(C(=O)COC(=O)c2cc(S(=O)(=O)N3CCOCC3)ccc2F)c(=O)n(C)c1=O` belongs above 72.7 µg/mL.

(Values after PubChem BioAssay AID1996.)
